Data taken from patent US7288541B2, “Propylcarbamate derivatives as inhibitors of serine and cysteine proteases” (SmithKline Beecham Corporation, priority 2001, dated 2007).

target: T1, human cathepsin K (Homo sapiens, UniProt P43235); experiment: Cathepsin K inhibition, fluorogenic substrate Cbz-Phe-Arg-AMC, progress curve method; format: biochemical; settings: not given
T1 construct: The proform of cathepsin K was converted to mature cathepsin K by brief exposure to pH 4; made in house; host or cells: baculovirus; Trichoplusia ni High Five cells (virus raised in Sf-9)
T1 sequence (P43235 115-329): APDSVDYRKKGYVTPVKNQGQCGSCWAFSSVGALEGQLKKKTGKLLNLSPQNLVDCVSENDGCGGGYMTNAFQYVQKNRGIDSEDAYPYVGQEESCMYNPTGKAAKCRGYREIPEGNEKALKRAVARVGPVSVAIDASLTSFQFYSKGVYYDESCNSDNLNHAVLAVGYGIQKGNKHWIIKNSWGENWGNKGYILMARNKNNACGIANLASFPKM
Experimental: All assays for cathepsin K were carried out with human and rat recombinant enzyme. Assays for cathepsins S & V were also carried out with human recombinant enzyme. Assays for human cathepsins B, H, and L were carried out with enzyme prepared from human liver tissue. […] A stock substrate solution of Cbz-Phe-Arg-AMC was prepared at a concentration of 50 mM in dimethyl sulfoxide. This substrate was diluted into the assay for a final substrate concentration of 10 μM in the rat cathepsin K, human cathepsin K, and human cathepsin B assays; a final substrate concentration of 5 μM in the human cathepsin L assay; and a final substrate concentration of 2 μM in the human cathepsin V assay.
All assays contained 10% dimethyl sulfoxide. […] All assays were conducted at 30° C. Product fluorescence (excitation at 360 nm; emission at 440 nm, (except cathepsin H which used excitation at 340 nm; emission at 420 nm)) was monitored with a PerSeptive Biosystems Cytofluor II fluorescence plate reader. Product progress curves were generated over 2.3 h monitoring the formation of 7-amino-4-methylcoumarin product (or β-naphthalamide for cathepsin H).
Human and Rat Cathepsin K:
The cells continued to grow for 72 h post-infection, before the virus was harvested by centrifugation at 1400×g for 30 min.
One and one-half liters of Trichoplusia ni (T. ni) High Five (TM) cells [JRH Biosciences, Woodland, Calif. […] The cells were grown for 24 h at 28° C., 50 RPM, and 50% dissolved oxygen. […] Media were separated from cells at a rate of 1 L/min using the Centritech 100 (TM) continuous-flow centrifuge (DuPont) operating at 200×g.
Protein Purification: Media (human and rat) were filtered through a Whatman 3 filter, and then loaded onto a 25 mL Poros HS II (26 mm×47 mm) cation exchange column equilibrated in 25 mM sodium acetate at pH 5.5 (equilibration buffer). The column was washed until the absorbance reached the baseline value, and then the protein was eluted with a linear gradient from 0–2 M sodium chloride in the equilibration buffer. Column fractions were analyzed by SDS-PAGE, N-terminal sequencing, and mass spectrometry. Fractions containing the proform of cathepsin K were pooled and frozen at −80° C. The proform was concentrated in an Amicon Centriprep 10 and fractionated with a Superdex 75 column (26 mm×600 mm, Pharmacia) equilibrated in 400 mM sodium chloride, 25 mM sodium acetate at pH 5.5.
Cathepsin K Activation: The proform of cathepsin K was converted to mature cathepsin K by brief exposure to pH 4 in the presence of 5 mM L-cysteine. Typically, 5 mM L-cysteine was added to 10 mL of approximately 1 mg/mL procathepsin K. One mL of this solution was diluted ten-fold into 450 mM sodium acetate at pH 4.0 containing 5 mM L-cysteine. This solution was reacted at 23° C. for 2 min before neutralization with 2 mL 1.8 M sodium acetate at pH 6.0. The neutralized sample was added to the remaining 9 mL of procathepsin K. The mixture was incubated at 4° C. for 2–3 days. The activated cathepsin K was chromatographed on a Poros HS II column as described above.
Potential inhibitors were evaluated using the progress curve method. Assays were carried out in the presence of variable concentrations of test compound. Reactions were initiated by addition of buffered solutions of inhibitor and substrate to enzyme. Data analysis was conducted according to one of two procedures depending on the appearance of the progress curves in the presence of inhibitors. […] Ki values were calculated from IC50 values using equation 2 assuming a competitive model.

IC50 [nM] | SMILES
1000 to 10000 | CCCC[C@H](NC(=O)O[C@H](Cn1ccc(-c2ccc(C(F)(F)F)cc2)n1)C(C)(C)C)C(=O)CNC(=O)N1CCOCC1 [Example 4, (1S)-2,2-dimethyl-1-({3-[4-(trifluoromethyl)phenyl]-1H-pyrazol-1-yl}methyl)propyl (1S)-1-{[(4-morpholinylcarbonyl)amino]acetyl}pentylcarbamate]

same assay, conditions: Table 1, Inhibition of Cathepsin K (Ki in nM); recombinant human enzyme, 10 μM substrate, pH 5.5, 30° C.; read-out: hCat K IC50

IC50 [nM] | SMILES
10 to 100 | CCCC[C@H](NC(=O)O[C@H](Cn1nccc1-c1ccc(C(F)(F)F)cc1)C(C)(C)C)C(=O)CNS(=O)(=O)c1ccccn1 [Example 12, (1S)-2,2-dimethyl-1-({5-[4-(trifluoromethyl)phenyl]-1H-pyrazol-1-yl}methyl)propyl (1S)-1-{[(2-pyridinylsulfonyl)amino]acetyl}pentylcarbamate]
< 10 | CCCC[C@H](NC(=O)O[C@H](COc1ccc(-n2ccnc2)cc1)C(C)(C)C)C(=O)CNS(=O)(=O)c1ccccn1 [Example 19, (1S)-1-{[4-(1H-imidazol-1-yl)phenoxy]methyl}-2,2-dimethylpropyl (1S)-1-{[(2-pyridinylsulfonyl)amino]acetyl}pentylcarbamate]
< 10 | CCCC[C@H](NC(=O)O[C@H](Cn1ccc(-c2ccncc2)n1)C(C)(C)C)C(=O)CNS(=O)(=O)c1ccccn1 [Example 14, (1S)-2,2-dimethyl-1-{[3-(4-pyridinyl)-1H-pyrazol-1-yl]methyl}propyl (1S)-1-{[(2-pyridinylsulfonyl)amino]acetyl}pentylcarbamate]
< 10 | CCCC[C@H](NC(=O)O[C@H](Cn1cnc2cc(Cl)c(Cl)cc21)C(C)(C)C)C(=O)CNS(=O)(=O)c1ccccn1 [Example 15, (1S)-1-[(5,6-dichloro-1H-benzimidazol-1-yl)methyl]-2,2-dimethylpropyl (1S)-1-{[(2-pyridinylsulfonyl)amino]acetyl}pentylcarbamate]
< 10 | CCCC[C@H](NC(=O)O[C@H](Cn1ccc(-c2ccc(C(F)(F)F)cc2)n1)C(C)(C)C)C(=O)CNc1cccc(F)n1 [Example 5, (1S)-2,2-dimethyl-1-({3-[4-(trifluoromethyl)phenyl]-1H-pyrazol-1-yl}methyl)propyl (1S)-1-{[(6-fluoro-2-pyridinyl)amino]acetyl}pentylcarbamate]
10 to 100 | CCCC[C@H](NC(=O)O[C@H](c1nc2cc(C(F)(F)F)ccc2s1)C(C)(C)C)C(=O)CNS(=O)(=O)c1ccccn1 [Example 9, (1S)-2,2-dimethyl-1-[5-(trifluoromethyl)-1,3-benzothiazol-2-yl]propyl (1S)-1-{[(2-pyridinylsulfonyl)amino]acetyl}pentylcarbamate]
10 to 100 | CCCC[C@H](NC(=O)O[C@H](Cn1cc(-c2ccc(C(F)(F)F)cc2)cn1)C(C)(C)C)C(=O)CNS(=O)(=O)c1ccccn1 [Example 11, (1S)-2,2-dimethyl-1-({4-[4-(trifluoromethyl)phenyl]-1H-pyrazol-1-yl}methyl)propyl (1S)-1-{[(2-pyridinylsulfonyl)amino]acetyl}pentylcarbamate]
< 10 | CCCC[C@H](NC(=O)O[C@H](Cn1ccc(-c2cccnc2)n1)C(C)(C)C)C(=O)CNS(=O)(=O)c1ccccn1 [Example 13, (1S)-2,2-dimethyl-1-{[3-(3-pyridinyl)-1H-pyrazol-1-yl]methyl}propyl (1S)-1-{[(2-pyridinylsulfonyl)amino]acetyl}pentylcarbamate]
100 to 1000 | C[C@H](NC(=O)O[C@H](Cn1ccc(C(F)(F)F)n1)C(C)(C)C)C(=O)CNS(=O)(=O)c1ccccn1 [Example 8, (1S)-2,2-dimethyl-1-{[3-(trifluoromethyl)-1H-pyrazol-1-yl]methyl}propyl (1S)-1-methyl-2-oxo-3-[(2-pyridinylsulfonyl)amino]propylcarbamate]
< 10 | CC(C)(C)[C@@H](Cn1cnc2cc(Cl)c(Cl)cc21)OC(=O)NCC(=O)CNS(=O)(=O)c1ccccn1 [Example 17, (1S)-1-[(5,6-dichloro-1H-benzimidazol-1-yl)methyl]-2,2-dimethylpropyl 2-oxo-3-[(2-pyridinylsulfonyl)amino]propylcarbamate]
10 to 100 | CCCC[C@H](NC(=O)O[C@H](Cn1ccc(C(F)(F)F)n1)C(C)(C)C)C(=O)CNS(=O)(=O)c1ccccn1 [Example 7, (1S)-2,2-dimethyl-1-{[3-(trifluoromethyl)-1H-pyrazol-1-yl]methyl}propyl (1S)-1-{[(2-pyridinylsulfonyl)amino]acetyl}pentylcarbamate]
< 10 | CCCC[C@H](NC(=O)O[C@H](Cn1cnc(-c2ccc(C(F)(F)F)cc2)c1)C(C)(C)C)C(=O)CNS(=O)(=O)c1ccccn1 [Example 18, (1S)-2,2-dimethyl-1-({4-[4-(trifluoromethyl)phenyl]-1H-imidazol-1-yl}methyl)propyl (1S)-1-{[(2-pyridinylsulfonyl)amino]acetyl}pentylcarbamate]
10 to 100 | CCCC[C@H](NC(=O)O[C@H](Cn1ccc(-c2ccc(C(F)(F)F)cc2)n1)C(C)(C)C)C(=O)CNS(=O)(=O)c1ccccn1 [Example 3, (1S)-2,2-dimethyl-1-({3-[4-(trifluoromethyl)phenyl]-1H-pyrazol-1-yl}methyl)propyl (1S)-1-{[(2-pyridinylsulfonyl)amino]acetyl}pentylcarbamate]
100 to 1000 | C[C@H](NC(=O)O[C@H](c1nc2cc(C(F)(F)F)ccc2s1)C(C)(C)C)C(=O)CNS(=O)(=O)c1ccccn1 [Example 10, (1S)-2,2-dimethyl-1-[5-(trifluoromethyl)-1,3-benzothiazol-2-yl]propyl (1S)-1-methyl-2-oxo-3-[(2-pyridinylsulfonyl)amino]propylcarbamate]
10 to 100 | C[C@H](NC(=O)O[C@H](Cn1ccc(-c2ccc(C(F)(F)F)cc2)n1)C(C)(C)C)C(=O)CNS(=O)(=O)c1ccccn1 [Example 2, (1S)-2,2-dimethyl-1-({3-[4-(trifluoromethyl)phenyl]-1H-pyrazol-1-yl}methyl)propyl (1S)-1-methyl-2-oxo-3-[(2-pyridinylsulfonyl)amino]propylcarbamate]
10 to 100 | CC(C)(C)[C@@H](Cn1ccc(-c2ccc(C(F)(F)F)cc2)n1)OC(=O)NCC(=O)CNS(=O)(=O)c1ccccn1 [Example 1, (1S)-2,2-dimethyl-1-({3-[4-(trifluoromethyl)phenyl]-1H-pyrazol-1-yl}methyl)propyl 2-oxo-3-[(2-pyridinylsulfonyl)amino]propylcarbamate]
